What was measured:
[1] = system: Rattus norvegicus
[2] = system: Rattus norvegicus; settings: oral; for NOAEL: M/F
[3] = system: Rattus norvegicus; settings: repeat dose other; oral
[4] = system: Rattus norvegicus; settings: oral, gavage
[5] = system: Rattus norvegicus; settings: oral
[6] = system: Rattus norvegicus; remark: listed apart in the source
[7] = system: Mus musculus; settings: developmental; oral; gavage; M; neurobehavioral effects
[8] = system: Mus musculus; settings: reproduction developmental, oral, gavage, M, NMRI, generation: P0
[9] = system: Rattus norvegicus; settings: duration: 2 years, oral
[10] = system: Mus musculus; settings: repeat dose other; oral
[11] = subchronic, oral, M/F, lesions in liver, kidney and thyroid
[12] = short-term, duration: 28 days, M, Sprague-Dawley, Clinical Observation: Spontaneous locomotion decrease, Respiratory rate decrease, Incomplete eyelid opening SalivationLacrimation Stool …
[13] = subchronic, oral, M, increased liver-to-body weight ratio and hepatic microsomal enzyme induction
[14] = subchronic, oral, M/F, hypoactivity and ataxia
[15] = subchronic, oral, M/F, increased liver weight and centrilobular hypertrophy
[16] = reproduction developmental, oral, M/F, reduced mean body weight
[17] = short-term, duration: 28 days, M, Sprague-Dawley, Clinical Observation: Locomotor activity decrease, Salivation + Functional Observational Battery: Locomotor activity decrease, Salivation + …
[18] = chronic, oral, M, testicular damage
[19] = chronic, duration: 2 years, oral, diet, M/F, increased kidney body weight ratio

CC(Cl)C(Cl)Cl (stereo not drawn) [1,1,2-Trichloropropane]
LOAEL [1, 11]: 150 mg/kg-day
NOEL [1, 11]: 15 mg/kg-day
NOAEL ([2]; subchronic, duration: 90 days, drinking water, Sprague-Dawley, Hepatic, Other): 14 mg/kg-day

Clc1cc2oc3cc(Cl)c(Cl)c(Cl)c3c2cc1Cl [1,2,3,7,8-Pentachlorodibenzofuran]
LOAEL [3]: 0.0016 mg/kg-day
NOAEL [3]: 0.00016 mg/kg-day

ClCC(Cl)CCl [1,2,3-Trichloropropane]
NOEL ([4]; chronic, duration: 17 weeks, M/F, Fischer 344, Deaths + Body Weight Changes: decrease + Hematology: Hct decrease, RBC decrease, Hgb decrease + Blood Chemistry: Na decrease, Alb increase, …): < 8 mg/kg-day
NOAEL [4, 12]: < 15 mg/kg-day
NOEL [4, 12]: < 15 mg/kg-day
NOAEL ([5]; chronic, duration: 120 days, Blood: Decreased hematocrit + Blood: Decreased hemoglobin + Erythrocytes: Decreased count + Kidney: Lesions + Liver: Lesions + Whole body: …): 8 mg/kg-day
NOAEL ([6]; short-term, duration: 11 days, inhalation, M/F, Fischer 344, respiratory): 6.03 mg/m3

Brc1ccc(Br)c(Br)c1 [1,2,4-Tribromobenzene]
LOAEL [1, 13]: 10 mg/kg-day
NOAEL [1, 13]: 5 mg/kg-day
NOAEL ([5]; subchronic, duration: 45 days, diet, Liver: Altered weight + Liver: Enzyme induction): 5 mg/kg-day

CCCCO [1-Butanol]
LOAEL [1, 14]: 500 mg/kg-day
NOAEL [1, 14]: 125 mg/kg-day
NOAEL ([5]; subchronic, duration: 13 weeks, gavage, Central nervous system: Ataxia + Central nervous system: Hypoactivity): 125 mg/kg-day

Brc1cc(Br)c(Oc2cc(Br)c(Br)cc2Br)cc1Br [2,2',4,4',5,5'-Hexabromodiphenyl ether]
LOAEL [7]: 0.9 mg/kg-day
NOAEL [7]: 0.45 mg/kg-day
LOEL ([8]; P0: Morris water maze (latency, last trial) + P0: Morris water maze (latency, middle trial) + P0: Morris water maze (latency, reversal trial…): 0.9 mg/kg-day
LOEL ([8]; P0: Morris water maze (latency, middle trial)): 9 mg/kg-day

Oc1c(Cl)cc(Cl)c(Cl)c1Cl [2,3,4,6-Tetrachlorophenol]
LOAEL [1, 15]: 100 mg/kg-day
NOAEL [1, 15]: 25 mg/kg-day
NOAEL ([5]; subchronic, duration: 90 days, gavage, Liver: Centrilobular hypertrophy + Liver: Increased weight): 25 mg/kg-day

Cc1ccc(N)c(C)c1 [2,4-Dimethylaniline]
LOAEL ([2]; chronic, duration: 6 months, diet, M, Osborne-Mendel): 18 mg/kg-day

Nc1cccc(O)c1 [3-Aminophenol]
NOAEL ([2]; short-term, duration: 18 days, gavage, Sprague-Dawley, Whole Body Effects): 80 mg/kg-day
NOAEL ([4]; short-term, duration: 28 days, M/F, Sprague-Dawley, Clinical Observation: Tremor Salivation + Body Weight Changes: decrease + Food Consumption: decrease + Water Consumption: increase + …): 240 mg/kg-day

O=S(=O)(O)c1ccc(Cl)cc1 [4-Chlorobenzenesulphonic acid]
NOAEL ([2]; subchronic, duration: 32 days, gavage, S-D): 1800 mg/kg-day

COc1cc2c(c3oc(=O)c4c(c13)CCC4=O)[C@]1(O)C=CO[C@@H]1O2 [Aflatoxin M1]
NOEL ([9]; chronic, diet, M, Fischer 344, Carcinogenicity): 0.1 mg

c1ccc2c(c1)cc1ccc3cccc4ccc2c1c34 [Benzo[a]pyrene]
LOAEL ([1]; developmental, duration: 9 days, inhalation, M/F, reduced embryo/fetal survival): 0.025 mg/m3
LOAEL [10]: 10 mg/kg-day
NOAEL [10]: 1 mg/kg-day

O=C1C2CC=CCC2C(=O)N1SC(Cl)(Cl)Cl (stereo not drawn) [Captan]
LEL [1, 16]: 25 mg/kg-day
NOEL [1, 16]: 12.5 mg/kg-day
NOEL ([5]; subchronic, diet, Whole body: Decreased weight): 12.5 mg/kg-day

ClC(Cl)(Cl)Cl [Carbon tetrachloride]
NOAEL [4, 17]: < 20 mg/kg-day
NOEL [4, 17]: < 20 mg/kg-day
NOAEL ([6]; chronic, duration: 104 weeks, inhalation, whole body, M/F, Fischer 344, hepatic): 31.5 mg/m3
NOAEL ([6]; chronic, duration: 205 days, inhalation, M/F, Wistar, hepatic): 31.5 mg/m3
LOAEL ([6]; short-term, duration: 10 days, oral, gavage, M, Fischer 344, hepatic): 5 mg/kg-day
NOAEL ([6]; subchronic, duration: 12 weeks, oral, gavage, M, Sprague-Dawley, hepatic): 1 mg/kg-day
NOAEL [3]: 16 mg/kg-day

Cc1cc(C(C#N)c2ccc(Cl)cc2)c(Cl)cc1NC(=O)c1cc(I)cc(I)c1O (stereo not drawn) [Closantel]
NOEL ([9]; chronic, diet, M/F, Wistar, Increased incidences of sperm granulomas in the epididymes of male rats): 2.5 mg/kg-day
NOEL ([9]; dietary / carcinogenicity, feed, M/F, Wistar, Increased incidences of sperm granulomas in the epididymes of male rats): 2.5 mg/kg-day

NC1CCCCC1 [Cyclohexylamine]
LOAEL [1, 18]: 60 mg/kg-day
NOAEL [1, 18]: 18 mg/kg-day
NOAEL ([5]; subchronic, duration: 90 days, diet, Testis: Decreased weight + Whole body: Decreased weight gain): 30 mg/kg-day

CC(Cl)(Cl)C(=O)O [Dalapon]
LEL [1, 19]: 28.2 mg/kg-day
NOEL [1, 19]: 8.45 mg/kg-day
NOEL ([5]; chronic, duration: 2 years, diet, Kidney: Increased relative weight): 8.45 mg/kg-day

CCOP(=S)(OCC)Oc1cc(C)nc(C(C)C)n1 [Diazinon]
NOAEL ([5]; subchronic, duration: 42 days, diet, Blood: Decreased cholinesterase activity): 0.09 mg/kg-day
NOAEL ([6]; chronic, duration: 98 weeks, oral, diet, M/F, Sprague-Dawley, neurological): 0.065 mg/kg-day
NOAEL ([6]; chronic, duration: 92 days, oral, diet, F, Wistar, neurological): 0.6 mg/kg-day
NOAEL ([6]; short-term, duration: 3 weeks, inhalation, nose only, M/F, albino, neurological): 1.57 mg/m3
